The text below walks through data of patent US20200155532A1, “METHOD FOR TREATING VIRAL INFECTIONS WITH LOPERAMIDE” (priority 2018, published 2020).

The assay relates to herpes viral infections. Nature of the assay: treating herpes outbreaks with loperamide taken by mouth. Type of assay: in vivo. Conditions: herpes outbreak; patient taking loperamide. An excerpt: Referring to FIG. 1, the present invention may include a new use of loperamide 100 as an anti-viral agent. Herpes, which erupts during stress and may include repeated flare-ups over, sometimes, weeks may be treated with the new use of loperamide 100 disclosed herein, which tends to eliminate this recycling when taken at every flare-up. Specifically, the new use 100 of loperamide as an anti-viral agent may have the following steps: at the onset of symptoms, the user takes the recommended amount at the recommended time intervals, such as two 2 mg loperamide tablets four or five times a day, in step 110; if pain persists, the user may review the dosage, in step 120; after 72 hours, when pain has subsided and blisters are gone or only thin scabs, the patient may discontinue use in step 130; magnesium hydroxide may be used for bowel function during treatment, in step 140; and in the case of a new flare-up, the user-patient may repeat the dosage cycle in step 150.

SMILES strings stand for the structures.

With `CN(C)C(=O)C(CCN1CCC(O)(c2ccc(Cl)cc2)CC1)(c1ccccc1)c1ccccc1` [loperamide], the “effect on the virus's activity” value is listed as “stop the virus's activity”, the “time to full recovery” value is “three” and the “time to stop the pain” value is no more than 30 min.
